Columns and labels:
[1] = target: T1, Tyrosine-protein kinase JAK3 (Homo sapiens, UniProt P52333); test: Inhibition of N-terminal GST-tagged human recombinant JAK3 (781 to 1124 residues) expressed in insect cells using 5FAM-GEEPLYWSFPAKKK-NH2 peptide as substrate incubated for 10 mins measured after 90 mins in presence of ATP by caliper mobility shift assay
T1 sequence (P52333 whole entry): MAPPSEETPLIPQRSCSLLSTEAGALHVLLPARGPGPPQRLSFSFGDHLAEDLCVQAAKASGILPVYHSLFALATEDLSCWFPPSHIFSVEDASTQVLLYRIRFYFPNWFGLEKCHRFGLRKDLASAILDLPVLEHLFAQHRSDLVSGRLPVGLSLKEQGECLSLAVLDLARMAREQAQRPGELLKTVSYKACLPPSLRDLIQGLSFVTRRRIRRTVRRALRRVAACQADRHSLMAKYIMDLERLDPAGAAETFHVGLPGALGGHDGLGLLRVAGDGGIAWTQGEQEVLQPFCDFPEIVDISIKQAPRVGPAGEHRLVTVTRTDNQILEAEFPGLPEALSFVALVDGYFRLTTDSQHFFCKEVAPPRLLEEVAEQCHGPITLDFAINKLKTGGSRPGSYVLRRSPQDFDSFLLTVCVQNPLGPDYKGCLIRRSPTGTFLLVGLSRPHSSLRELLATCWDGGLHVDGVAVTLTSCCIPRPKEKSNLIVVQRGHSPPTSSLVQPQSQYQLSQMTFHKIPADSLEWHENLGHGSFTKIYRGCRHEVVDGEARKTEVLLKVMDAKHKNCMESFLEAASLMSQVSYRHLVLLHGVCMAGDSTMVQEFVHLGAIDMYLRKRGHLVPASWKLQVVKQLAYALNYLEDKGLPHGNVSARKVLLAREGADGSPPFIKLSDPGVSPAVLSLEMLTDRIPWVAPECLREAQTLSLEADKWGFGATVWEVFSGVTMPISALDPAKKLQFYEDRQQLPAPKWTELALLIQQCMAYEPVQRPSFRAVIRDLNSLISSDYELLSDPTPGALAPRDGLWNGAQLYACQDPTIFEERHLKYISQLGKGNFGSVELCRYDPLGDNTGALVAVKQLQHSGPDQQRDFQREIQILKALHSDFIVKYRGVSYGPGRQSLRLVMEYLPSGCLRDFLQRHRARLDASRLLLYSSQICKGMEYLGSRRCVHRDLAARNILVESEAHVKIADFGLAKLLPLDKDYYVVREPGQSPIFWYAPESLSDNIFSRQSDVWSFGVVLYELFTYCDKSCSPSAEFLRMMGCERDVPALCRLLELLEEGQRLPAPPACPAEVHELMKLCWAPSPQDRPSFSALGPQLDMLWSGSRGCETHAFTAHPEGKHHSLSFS

[2] = target: Tyrosine-protein kinase JAK1 (Homo sapiens, UniProt P23458); test: Inhibition of N-terminal GST-tagged human recombinant JAK1 (866 to 1154 residues) expressed in insect cells using FITC-C6-KKHTDDGYMPMSPGVA-NH peptide as substrate incubated for 10 mins measured after 90 mins in presence of ATP by caliper mobility shift assay
Chain of Tyrosine-protein kinase JAK1 (P23458 whole entry, the tested form may be a part): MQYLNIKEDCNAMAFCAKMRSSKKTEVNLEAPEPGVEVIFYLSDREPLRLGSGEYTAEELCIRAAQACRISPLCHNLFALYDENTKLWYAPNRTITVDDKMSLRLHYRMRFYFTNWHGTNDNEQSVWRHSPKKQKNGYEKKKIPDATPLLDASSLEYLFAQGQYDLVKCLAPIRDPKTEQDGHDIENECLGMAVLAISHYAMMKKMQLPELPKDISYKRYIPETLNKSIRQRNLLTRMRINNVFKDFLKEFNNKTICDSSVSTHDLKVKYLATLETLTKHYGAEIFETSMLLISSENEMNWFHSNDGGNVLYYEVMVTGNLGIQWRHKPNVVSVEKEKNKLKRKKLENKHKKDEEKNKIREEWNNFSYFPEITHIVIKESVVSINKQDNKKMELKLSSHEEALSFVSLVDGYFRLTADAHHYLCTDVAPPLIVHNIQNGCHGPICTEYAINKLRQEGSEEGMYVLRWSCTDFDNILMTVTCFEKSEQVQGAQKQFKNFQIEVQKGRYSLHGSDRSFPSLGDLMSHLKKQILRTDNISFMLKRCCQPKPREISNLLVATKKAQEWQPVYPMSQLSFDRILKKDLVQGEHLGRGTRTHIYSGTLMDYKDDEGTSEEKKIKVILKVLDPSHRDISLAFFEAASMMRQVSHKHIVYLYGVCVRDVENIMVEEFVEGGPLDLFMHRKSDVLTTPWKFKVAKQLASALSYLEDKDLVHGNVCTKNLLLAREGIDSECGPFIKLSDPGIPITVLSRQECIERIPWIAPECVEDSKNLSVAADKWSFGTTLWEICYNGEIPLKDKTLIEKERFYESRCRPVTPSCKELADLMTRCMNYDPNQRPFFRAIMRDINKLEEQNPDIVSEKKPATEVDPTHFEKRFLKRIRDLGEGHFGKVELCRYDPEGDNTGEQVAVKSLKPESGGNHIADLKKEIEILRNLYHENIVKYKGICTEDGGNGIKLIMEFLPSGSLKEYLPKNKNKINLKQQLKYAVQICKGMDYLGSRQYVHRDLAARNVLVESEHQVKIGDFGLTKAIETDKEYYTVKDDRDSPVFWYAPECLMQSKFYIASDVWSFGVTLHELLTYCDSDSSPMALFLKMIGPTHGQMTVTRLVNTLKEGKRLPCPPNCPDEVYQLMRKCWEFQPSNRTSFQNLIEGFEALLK

Cc1cnc(Nc2cccc(S(C)(=O)=O)c2F)nc1-c1c[nH]c2c(NC(=O)[C@@H](C)N3CCN(C)CC3)cccc12 [US10961228, Example 2]
IC50 [1]: > 30 µM

CC[C@H](C(=O)Nc1cccc2c(-c3nc(Nc4cccc(S(C)(=O)=O)c4F)ncc3C)c[nH]c12)N1CCN(C)CC1 [US10961228, Example 14]
IC50 [2]: < 0.003 µM | IC50 [1]: > 30 µM

COC[C@H](C(=O)Nc1cccc2c(-c3nc(Nc4cccc(S(C)(=O)=O)c4F)ncc3C)c[nH]c12)N1CCN(C)CC1 [US10961228, Example 16]
IC50 [2]: < 0.003 µM | IC50 [1]: > 30 µM

COC[C@H](C(=O)Nc1cccc2c(-c3nc(Nc4cccc(S(C)(=O)=O)c4F)ncc3F)c[nH]c12)N1CCN(C)CC1 [US10961228, Example 35]
IC50 [2]: < 0.003 µM | IC50 [1]: > 30 µM

CC[C@H](C(=O)Nc1cccc2c(-c3nc(Nc4cccc(S(C)(=O)=O)c4F)ncc3F)c[nH]c12)N1CCN(C)CC1 [US10961228, Example 38]
IC50 [1]: > 30 µM

— BindingDB's records for PubMed 37738648 (Astrazeneca, 2023)
